Earlier results as cited in patent US20040248932A1, “Use of aryl- and heteroaryl-substituted tetrahydroisoquinolines in the treatment of chronic and neuropathic pain, migraine headaches, and urge, stress and mixed urinary incontinence” (priority 2002, published 2004).

Settings: nocturnal enuresis, following treatment

## CN(C)CCCN1c2ccccc2CCc2ccccc21 [imipramine, Imipramine]
  further patients in whom improvements can be seen: 15-20%
  patients in whom enuresis can be cured: over 50%
